Values after ≈ are worked out from the molar mass of the structure shown.
Legend:
Format in all cases: functional
[1] = system: Mycobacterium tuberculosis; assay: Antimycobacterial activity against Mycobacterium tuberculosis after 14 days; conditions: 336 h
[2] = system: Mycobacterium tuberculosis; assay: Antimycobacterial activity against Mycobacterium tuberculosis H37Rv expressing GFP after 7 days; conditions: 168 h
[3] = system: Mycobacterium tuberculosis; assay: Antimycobacterial activity against Mycobacterium tuberculosis MDR_CHUV by resazurin reduction microplate assay
[4] = system: Mycobacterium tuberculosis; assay: Antimycobacterial activity against Mycobacterium tuberculosis H37Rv by broth microdilution method

SMILES: C[C@]1(COc2ccc(N3CCC(Oc4ccc(OC(F)(F)F)cc4)CC3)cc2)Cn2cc([N+](=O)[O-])nc2O1 [DELAMANID]
- MIC [1]: 0.023 µM (≈ 12.3 ng/mL)

SMILES: Cn1nc([N+](=O)[O-])nc1Oc1ccc(C(C)(C)C)cc1
- MIC [2]: 0.5 µM (≈ 138 ng/mL)

SMILES: O=c1nc(N2CCN(CC3CCCCC3)CC2)sc2c([N+](=O)[O-])cc(C(F)(F)F)cc12 [MACOZINONE]
- MIC [3]: 0.0004 µM (≈ 0.183 ng/mL)

SMILES: C[C@H]1COC2(CCN(c3nc(=O)c4cc(C(F)(F)F)cc([N+](=O)[O-])c4s3)CC2)O1 [BTZ-043]
- MIC [4]: 0.001 µM (≈ 0.431 ng/mL)

Reference: ChEMBL document CHEMBL4002566, “S-substituted 3,5-dinitrophenyl 1,3,4-oxadiazole-2-thiols and tetrazole-5-thiols as highly efficient antitubercular agents” (Eur J Med Chem, 2017)
